This data set is described as follows: crystalline stability in constant temperature and humidity chamber. Format: physicochemical.
Setting [1] is: 25° C./75% RH, summary of 1 to 7 days.
Where [2] appears, read: 80° C./75% RH, summary of 1 to 7 days.
Where [3] appears, read: powder exposed to 25° C., 75%RH, 1 day.
Setting [4] is: powder exposed to 25° C., 75%RH, 3 days.
Setting [5] is: powder exposed to 25° C., 75%RH, 7 days.
The mark [6] stands for this setting: powder exposed to 80° C., 75%RH, 1 day.
Setting [7] is: powder exposed to 80° C., 75%RH, 3 days.
Setting [8] is: powder exposed to 80° C., 75%RH, 7 days.

For `CN(C)C(=O)c1cc2cnc(Nc3ccc(N4CCNCC4)cn3)nc2n1C1CCCC1.O=C(O)CCC(=O)O` [Ribociclib succinate in crystalline form B] [butanedioicacid-7-cyclopentyl-N,N-dimethyl-2-[(5-piperazin-1-ylpyridin-2-yl)amino]pyrrolo[2,3-D]pyrimidine-6-carboxamide], the “crystalline form (crystalline stability)” value was “maintained its crystalline form and did not transform to other crystalline forms” under setting [1]; “maintained its crystalline form and did not transform to other crystalline forms” under setting [2]; “Stayed as B” under setting [3]; “Stayed as B” under setting [4]; “Stayed as B” under setting [5]; “Stayed as B” under setting [6]. The “crystalline form (crystalline stability)” value reads like this: under setting [7], “Stayed as B”; under setting [8], “Stayed as B”.

For the molecule `CN(C)C(=O)c1cc2cnc(Nc3ccc(N4CCNCC4)cn3)nc2n1C1CCCC1.O=C(O)CCC(=O)O` [Ribociclib succinate in crystalline form A] [butanedioicacid-7-cyclopentyl-N,N-dimethyl-2-[(5-piperazin-1-ylpyridin-2-yl)amino]pyrrolo[2,3-D]pyrimidine-6-carboxamide], the “crystalline form (crystalline stability)” value by setting is: under setting [1], “maintained its crystalline form”; under setting [2], “transformed from crystalline form A to crystalline form B”; under setting [3], “Stayed as A”; under setting [4], “Stayed as A”; under setting [5], “Stayed as A”; under setting [6], “Transformed from A to B”. Further, the “crystalline form (crystalline stability)” value under setting [7] is given as “Transformed from A to B” and the “crystalline form (crystalline stability)” value under setting [8] is on record as “Transformed from A to B”.

The values are drawn from patent US10336763B1, “Crystal form B of ribociclib succinate” (Chunghwa Chemical Synthesis & Biotech Co. Ltd., priority 2018, dated 2019).
